# Test results reported in US20120029054A1, “RNA Interference Mediated Inhibition of GATA Binding Protein 3 (GATA3) Gene Expression Using Short Intefering Nucleic Acid (siNA)” (Merck Sharp & Dohme Corp., priority 2009, published 2012).
# System: GATA3 protein
# Test: GATA3 Western Blot in transfected MCF7 cells (6-well plate)
# Assay type: cell-based, human
# Details: 30 nM, 48 hours, average band ratio ± S.D.
# Experimental: MCF7 cells were plated in 6-well plates at final counts of 70,000 cells/well in 2 ml of complete growth media. Transfection was performed using 2.5 uL of RNAiMax per well. Final concentration of siNAs was 30 nM (screen) and 30, 0.3, and 0.003 nM (dose response study). Protein lysates were harvested 24, 48, and 72 hours post-transfection (screen) and 72 hours post-transfection (dose response study). Protein lysates were prepared using Cell Disruption Buffer from the PARIS kit (Ambion, cat #1921) according to manufacturer's instructions. Protein concentration was measured using a Bradford Quick Start Kit (Bio-Rad, cat#500-0205).
# The protein source for the Western Blot experiments were from transfection of MCF7 cells in a 6 well plate, as described above.
# Protein samples were diluted 1:1 in 2× Laemmli buffer with 5% β-mercapto-ethanol and incubated at 95° C. for 5 minutes. 20-40 ug of protein was loaded in each lane of 10% Tris-HCl gel. One lane was designated for MagicMark Protein Standard (Invitrogen # LC5602). The gel was run at 100V for approximately 2 hours. Protein was transferred to a PVDF membrane at 100V for 60 minutes. Once the transfer was finished, the membrane was blocked in 1% Casein in PBS (BioRad Cat#161-0783) for 1 hour on a plate rocker at room temperature followed by the overnight incubation at 4° C. with mouse monoclonal anti-GATA3 primary antibody (Santa Cruz Biotechnology, cat# HG3-31) diluted 1:500 in 1% Casein in PBS. On the next day, the blot was washed 4×5 minutes in PBST (0.1% Tween-20 in PBS) solution and incubated for 30 minutes at room temperature with goat anti-mouse secondary antibody (Pierce Biotechnology, cat#3 31430) diluted 1:20,000 in 1% Casein. […]
# The protein bands were quantified by computing their density which is defined by the ratio between the total intensity of all pixels and the area of the rectangle drawn around each band (intensity/mm^2). The density was calculated by the BioRad software.
# The level of protein was quantified using the Bio-Rad VersaDoc Imager according to the protocols of that piece of equipment. […]
substance,measurement,value
"30263-DC: GATA3 siNA duplex, site 817: sense B cGccucuGcuucAuGGAuc TTB (SEQ 79), antisense GAUccAuGAAGcAGAGGcGUU (SEQ 80) (sense CGCCUCUGCUUCAUGGAUCTT; antisense GAUCCAUGAAGCAGAGGCGUU; chemistry not fully specified)",Density (GATA3)/Density (α-Tubulin),0.016 ± 0.0003
